Like-named read-outs stand apart in the source and are kept apart here. Marks after values point to notes of the source that are not given here.
Key:
[1] = Ca^2+ complex, cited from earlier work
[2] = Mg^2+ complex, cited from earlier work
[3] = Mn(II) complex, 25 °C, pH = 7.4, cited from earlier work
[4] = T = 25 °C, cited from earlier work; for log KMnL / pMn / log KMnHL: ref 16 (PC2A ligands), 12 (DO2A ligands); for log KMnL / pMn: 20 (H21,7-O2DO2A); for pMn: pMn = −log(Mn(II)free), cMn^2+ = cligand = 1 × 10^−5 M, pH = 7.4
[5] = Zn^2+ complex, T = 25 °C, I = 0.15 M NaCl, cited from earlier work; for log KMnL / log KMnHL: ref 16 (PC2A ligands), 12 (DO2A ligands)
[6] = Cu^2+ complex, T = 25 °C, I = 0.15 M NaCl, cited from earlier work; for log KMnHL / log KMnL: ref 16 (PC2A ligands), 12 (DO2A ligands), 20 (H21,7-O2DO2A)
[7] = T = 25 °C, I = 0.15 M NaCl, ref 16 (PC2A ligands), 12 (DO2A ligands), cited from earlier work; for log K1^H / log K2^H / log K3^H / Σlog Κ2^H: 20 (H21,7-O2DO2A); for Σlog Κ2^H: log K1^H + log K2^H
[8] = pH = 6.0, 25 equivalents of Zn(II), 37 °C, cited from earlier work
[9] = cited from earlier work
[10] = cited from earlier work; remark: listed apart in the source
[11] = Stability test of 52Mn-labeled complexes in rat serum (radio-TLC); type: in vitro ADME; conditions: room temperature, up to 7 days
Protocol: Stability test of [[^52Mn]Mn(3,9-PC2A)] and [[^52Mn]Mn(3,9-OPC2A)] in rat serum. 100 µL aqueous solution of each radiolabeled complex (~7.5 MBq) was mixed with 100 uL of rat serum, and incubated at room temperature. Aliquots were taken and analyzed at the beginning and after 1, 2, 3, and 20 h, and 2, 3, and 7 days later, by the radio-TLC method, as explained mentioned above.

[12] = Octanol/water partition coefficient (logP) of 52Mn-labeled complexes; type: physicochemical
Protocol: Determination of logP values of the [[^52Mn]Mn(3,9-PC2A)] and [[^52Mn]Mn(3,9-OPC2A)] chelates. 100 µL aqueous solution of each radiolabeled complex (~7.5 MBq) was added to 100 µL of octanol. The mixture was shaken with a vortex shaker (5 min, 1000 rpm) and centrifuged (5 min, 10,000 rpm). A total of 3 × 20 µL from the octanol and 3 × 20 µL from the water were pipetted into test tube, respectively. The radioactivity of the samples was measured with a gamma detector.

[13] = EDTA challenge of 52Mn-labeled complexes (transchelation); type: physicochemical; conditions: 0.2 M H4EDTA (pH 7.4), room temperature, 7 days
Protocol: EDTA challenge of [[^52Mn]Mn(3,9-PC2A)] and [[^52Mn]Mn(3,9-OPC2A)]. 50 µL aqueous solution of each radiolabeled complex (~3.75 MBq) was incubated with 50 µL of 0.2 M EDTA (pH 7.4) solution at room temperature. Aliquots were taken and analyzed by the radio-TLC method, as mentioned above, at the beginning and after 1, 2, 3, and 20 h, and 2, 3, and 7 days incubation time.

[14] = Metal challenge of 52Mn-labeled complexes (transmetalation); type: physicochemical; conditions: ZnCl2, CuCl2, MgCl2, CaCl2 mixture, room temperature, 7 days
Protocol: Metal challenge of [[^52Mn]Mn(3,9-PC2A)] and [[^52Mn]Mn(3,9-OPC2A)]. 49 µL aqueous solution of each radiolabeled complex (~3.75 MBq) was incubated with a 1:1 mixture of 0.1 mM ZnCl2 and 0.01 mM CuCl2 (1 µL), and a 1:1 mixture of 1.02 mM MgCl2 and 2.28 mM CaCl2 (50 µL) at room temperature. Samples were taken from the mixtures at the beginning and after 1, 2, 3, and 20 h, and 2, 3, and 7 days later. For the analysis of the samples, the above-mentioned radio-TLC method was applied.

[15] = T = 25 °C, I = 0.15 M NaCl, ref 16 (PC2A ligands), 12 (DO2A ligands), 20 (H21,7-O2DO2A)
[16] = T = 25 °C, I = 0.15 M NaCl, ref 16 (PC2A ligands), 20 (H21,7-O2DO2A)
[17] = 0.49 T, ref 16 (PC2A ligands), 12 (DO2A ligands), 20 (H21,7-O2DO2A)

SMILES: O=C(O)CN1CCOCCN(CC(=O)O)CCOCC1 [H21,7-O2DO2A]
- log KMnL [1, 15]: 6.96
- log KMnL [2, 16]: 3.91
- r1p [3, 17]: 2.86 mM⁻¹ s⁻¹
- log KMnLOH ([4]; Mn^2+ complex, I = 0.15 M NaCl): 12.38
- log KMnL ([4]; Mn^2+ complex, I = 0.15 M NaCl): 9.38
- pMn [4]: 6.67
- log KMnLOH ([5]; DO2A values carry footnote f, ref 12 (DO2A ligands), 20 (H21,7-O2DO2A)): 11.40
- log KMnL ([5]; 20 (H21,7-O2DO2A)): 10.55
- log KMnLOH [6]: 11.95
- log KMnHL [6]: 2.46
- log KMnL [6]: 14.56
- log K1^H [7]: 8.05
- log K2^H [7]: 7.43
- log K3^H [7]: 2.06
- Σlog Κ2^H [7]: 15.48

SMILES: O=C(O)CN1CCNCc2cccc(n2)CN(CC(=O)O)CC1 [H23,6-PC2A]
- log KMnHL ([1]; T = 25 °C, I = 0.15 M NaCl): 5.27
- log KMnL [1, 15]: 9.57
- log KMnHL ([2]; T = 25 °C, I = 0.15 M NaCl): 5.87
- log KMnL [2, 16]: 8.11
- r2p ([3]; 0.49 T): 3.49 mM⁻¹ s⁻¹
- r1p [3, 17]: 2.72 mM⁻¹ s⁻¹
- r1p ([3]; 1.41 T): 2.40 mM⁻¹ s⁻¹
- r2p ([3]; 1.41 T): 4.20 mM⁻¹ s⁻¹
- log KMnL ([4]; Mn^2+ complex, I = 0.15 M NaCl): 15.53
- log KMnHL ([4]; Mn^2+ complex, I = 0.15 M NaCl): 3.06
- pMn [4]: 8.09
- log KMnL ([5]; 20 (H21,7-O2DO2A)): 20.37
- log KMnHL [5]: 2.36
- log KMnHL [6]: 2.37 ^g
- log KMnL [6]: 24.09 ^g
- log K1^H [7]: 10.72
- log K2^H [7]: 8.37
- log K3^H [7]: 3.81
- log K4^H [7]: 1.26
- Σlog Κ2^H [7]: 19.09

SMILES: O=C(O)CN1CCNCCN(CC(=O)O)Cc2cccc(n2)C1 [H23,9-PC2A, pyclen-3,9-diacetate]
- log KMnHL ([1]; T = 25 °C, I = 0.15 M NaCl): 5.08
- log KMnL [1, 15]: 9.92
- log KMnL ([1]; value in parenthesis): 10.0
- log KMnHL ([2]; T = 25 °C, I = 0.15 M NaCl): 5.91
- log KMnL [2, 16]: 9.84
- log KMnL ([2]; value in parenthesis): 8.4
- r2p ([3]; 0.49 T): 3.96 mM⁻¹ s⁻¹
- r1p [3, 17]: 2.91 mM⁻¹ s⁻¹
- r1p ([3]; 1.41 T): 2.24 mM⁻¹ s⁻¹
- r2p ([3]; 1.41 T): 4.82 mM⁻¹ s⁻¹
- log KMnL ([4]; Mn^2+ complex, I = 0.15 M NaCl): 17.09
- log KMnHL ([4]; Mn^2+ complex, I = 0.15 M NaCl): 2.14
- pMn [4]: 8.64
- log KMnL ([5]; 20 (H21,7-O2DO2A)): 19.49
- log KMnHL [5]: 2.74
- log KMnHL [6]: 2.12 ^g
- log KMnL [6]: 23.58 ^g
- log K1^H [7]: 12.25
- log K2^H [7]: 5.97
- log K3^H [7]: 3.47
- log K4^H [7]: 1.99
- Σlog Κ2^H [7]: 18.22

SMILES: O=C([O-])CN1CCNCCN(CC(=O)[O-])Cc2cccc(n2)C1.[Mn+2] [[Mn(3,9-PC2A)]]
- pMn [4]: 8.64
- kobs ([8]; previously reported): (3.28 ± 0.03) × 10^−4 s^−1
- t1/2 (h) at pH = 7.4 ([9]; extrapolated to pH = 7.4, ref 16 (PC2A complexes), 12, 13, 20): 21.0 h
- k3 ([9]; metal assisted dissociation, T = 25 °C, I = 0.15 M NaCl): 0.036 M⁻¹ s⁻¹
- k1 ([9]; proton assisted dissociation, T = 25 °C, I = 0.15 M NaCl, ref 16 (PC2A complexes), 12, 13, 20): 221 M⁻¹ s⁻¹
- KMnL x H ([9]; protonation constant of the complex from kinetic fit, T = 25 °C, I = 0.15 M NaCl): 3.6 × 10^3
- KML x Cu ([9]; stability constant of dinuclear intermediate, T = 25 °C, I = 0.15 M NaCl, unit assumed): 26 M⁻¹
- r1^298_20 MHz ([10]; 20 MHz, 298 K): 2.91 mM⁻¹ s⁻¹
- ΔH^‡ ([10]; activation enthalpy of water exchange): 37.5 kJmol^−1
- q ([10]; hydration number, fixed during the fitting procedure): 1
- kex^298 ([10]; water exchange rate with bulk solvent): 1.26e+08 s⁻¹
- kex^298 ([10]; water exchange rate): 12.6 10^7s^−1

SMILES: O=C([O-])CN(CC(=O)[O-])C1CCCCC1N(CC(=O)[O-])Cc1ccccn1.[Mn+2] (stereo not drawn) [[Mn(PyC3A)]]
- kobs [8]: (6.76 ± 0.04) × 10^−4 s^−1

SMILES: O=C([O-])CN1CCOCCN(CC(=O)[O-])Cc2cccc(n2)C1.[52Mn+2] [[[^52Mn]Mn(3,9-OPC2A)]]
- stability in rat serum [11]: remained intact even after seven days
- logP [12]: −2.56
- transchelation in H4EDTA challenge [13]: slower and was not completed after seven days
- complex dissociated in metal challenge [14]: about 30%

SMILES: O=C([O-])CN1CCNCCN(CC(=O)[O-])Cc2cccc(n2)C1.[52Mn+2] [[[^52Mn]Mn(3,9-PC2A)]]
- stability in rat serum [11]: remained intact even after seven days
- logP [12]: −2.51
- transchelation in H4EDTA challenge [13]: transchelation was complete
- inertness in metal challenge [14]: stayed intact
